Data taken from publication PMC3022030 (PLoS ONE, 2011).
Like-named read-outs stand apart in the source and are kept apart here.

Legend:
Assay in all cases: biochemical
QacR [1] = target: T1, QacR (Staphylococcus aureus, UniProt P0A0N3, E120A)
QacR [2] = target: T2, QacR (Staphylococcus aureus, UniProt P0A0N3, E90A)
QacR [3] = target: T1, QacR; remark: listed apart in the source
QacR [4] = target: T2, QacR; remark: listed apart in the source

Structure (SMILES) | Kd (QacR [1]) | Kd (QacR [2]) | Kd (QacR [3]) | Kd (QacR [4])
Cc1cc(N)c2ccccc2[n+]1CCCCCCCCCC[n+]1c(C)cc(N)c2ccccc21 [dequalinium] | 2400 ± 600 nM | 1800 ± 70 nM | – | –
CN(C)c1ccc(C(=C2C=CC(=[N+](C)C)C=C2)c2ccccc2)cc1 [malachite green] | – | – | 980 ± 320 nM | 1490 ± 100 nM
CC[n+]1c(-c2ccccc2)c2cc(N)ccc2c2ccc(N)cc21 [ethidium] | – | – | 1250 ± 150 nM | 1030 ± 90 nM
CCN=c1cc2oc3cc(NCC)c(C)cc3c(-c3ccccc3C(=O)OCC)c-2cc1C [rhodamine 6G] | – | – | 170 ± 10 nM | 210 ± 20 nM
